In series [1] the test system is β-glucosidase from Aureobasidium pullulans. The settings on record: Saha et al. (1995), cited from earlier work.
Series [2] has as its system native β-glucosidase of Orpinomyces PC-2. The settings on record: Chen et al. (1994), cited from earlier work.
Series [3] concerns the target β-glucosidase from Aspergillus niger (Aspergillus niger, UniProt A2RAL4). The settings on record: read-out: Cellobiose affinity (Km); Hoh et al. (1992); cited from earlier work.
Series [4] has as its system β-glucosidase from Aspergillus nidulans. Conditions: Kwon et al. (1992), cited from earlier work.
The test system of series [5] is β-glucosidase from Sporotrichum thermophile. Conditions: Bhat et al. (1993), cited from earlier work.
Series [6] deals with β-glucosidase from T. reesei. The settings on record: Chen et al. (1992), cited from earlier work.
For series [7], the system named is β-glucosidase from Thermotoga sp. Conditions: Ruthersmith and Daniel (1993), cited from earlier work.
Series [8] relates to β-glucosidase from Clostridium thermocellum. Conditions: Katayeva et al. (1992); read-out: Cellobiose affinity (Km); cited from earlier work.
Series [9] addresses T1, Orpinomyces sp. strain PC-2 β-glucosidase BglA, recombinant, secreted from S. cerevisiae, SEQ ID NO:2 (Orpinomyces sp. PC-2, UniProt Q9UUQ3).
T1 sequence (Q9UUQ3 17-657): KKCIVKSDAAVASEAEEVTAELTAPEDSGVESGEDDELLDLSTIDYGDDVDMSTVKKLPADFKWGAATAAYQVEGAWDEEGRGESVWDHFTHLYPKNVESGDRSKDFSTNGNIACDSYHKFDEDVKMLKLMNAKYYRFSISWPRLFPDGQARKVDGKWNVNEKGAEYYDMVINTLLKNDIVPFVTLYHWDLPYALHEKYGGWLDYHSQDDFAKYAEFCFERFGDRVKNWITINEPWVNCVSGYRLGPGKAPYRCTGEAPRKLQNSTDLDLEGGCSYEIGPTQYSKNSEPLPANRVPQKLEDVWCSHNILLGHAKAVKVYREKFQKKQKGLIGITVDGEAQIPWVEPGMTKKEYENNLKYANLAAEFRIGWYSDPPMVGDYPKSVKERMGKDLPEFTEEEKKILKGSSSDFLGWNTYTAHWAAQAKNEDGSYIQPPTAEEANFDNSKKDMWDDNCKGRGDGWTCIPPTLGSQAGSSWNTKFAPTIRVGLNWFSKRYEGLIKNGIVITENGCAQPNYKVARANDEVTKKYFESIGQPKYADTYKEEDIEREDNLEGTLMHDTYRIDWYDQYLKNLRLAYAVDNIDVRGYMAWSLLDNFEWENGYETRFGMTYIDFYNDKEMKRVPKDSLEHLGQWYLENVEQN
Briefly: Kinetic parameters of purified secreted recombinant BglA (Lineweaver-Burk plots). Format: biochemical. As to the method: (§1) β-Glucosidase (.rho.-nitrophenyl-β-D-glucosidase [.rho.NPGase]) and cellobiase activities were determined by the following standard procedures. With .rho.-nitrophenyl-β-D-glucoside (.rho.NPG) as the substrate, the reaction mixture of 1.2 ml contained 0.3 ml of appropriately diluted enzyme solution, 0.6 ml of 50 mM sodium phosphate buffer, pH 6.0, and 0.3 ml of 12 mM .rho.NPG. The reaction was carried out for 10 min at 40° C. and stopped by the addition of 2.4 ml of 1M Na2 CO3. The liberated .rho.-nitrophenol was measured spectrophotometrically at 405 nm [Herr et al. (1978) Appl. Microbiol. Biotechnol. 5:29-36; Chen et al. (1992) Biochem. Biophys. Acta. 1121:54-60]. Cellobiase activity was determined by using a reaction mixture of 2 ml containing 1 ml of appropriately diluted enzyme solution in 50 mM sodium phosphate buffer, pH 6.0, and 1 ml of 2 mM cellobiose. The reaction was carried out at 40° C. for 30 min and was stopped by placing the assay tubes in boiling water for 5 min. Liberated glucose was measured with a glucose determination kit (Sigma Chemical Co., St. Louis, Mo.) according to the manufacturer's instructions. One unit of β-glucosidase or cellobiase activity is defined as the amount of enzyme required to hydrolyze 1 μmole of substrate per min. Specific activity is expressed as unit per milligram of protein. […]

Substrate in series [10]: OC[C@H]1O[C@@H](O[C@H]2[C@H](O)[C@@H](O)C(O)O[C@@H]2CO)[C@H](O)[C@@H](O)[C@@H]1O
The series is described as above. The settings on record: other: 40° C. and pH 6.0. Format: biochemical, Orpinomyces sp. strain PC-2. The protocol: as §1

Substrate in series [11]: O=[N+]([O-])c1ccc(O[C@@H]2O[C@H](CO)[C@@H](O)[C@H](O)[C@H]2O)cc1
Described as above. Conditions: other: 40° C. and pH 6.0. Format: biochemical, Orpinomyces sp. strain PC-2. As to the method:
as §1

[12] abbreviates: read-out: Cellobiose affinity (Km).
Where [13] appears, read: read-out: Glucose inhibition (Ki).

Where two headings read alike, the source gives them in different places.

Usually Km stands for the concentration of substrate that gives half-maximal velocity. A word on the Ki: it is the dissociation constant of the complex between target and ligand, obtained from inhibition or displacement.

Sequence of β-glucosidase from Aspergillus niger (A2RAL4 20-860): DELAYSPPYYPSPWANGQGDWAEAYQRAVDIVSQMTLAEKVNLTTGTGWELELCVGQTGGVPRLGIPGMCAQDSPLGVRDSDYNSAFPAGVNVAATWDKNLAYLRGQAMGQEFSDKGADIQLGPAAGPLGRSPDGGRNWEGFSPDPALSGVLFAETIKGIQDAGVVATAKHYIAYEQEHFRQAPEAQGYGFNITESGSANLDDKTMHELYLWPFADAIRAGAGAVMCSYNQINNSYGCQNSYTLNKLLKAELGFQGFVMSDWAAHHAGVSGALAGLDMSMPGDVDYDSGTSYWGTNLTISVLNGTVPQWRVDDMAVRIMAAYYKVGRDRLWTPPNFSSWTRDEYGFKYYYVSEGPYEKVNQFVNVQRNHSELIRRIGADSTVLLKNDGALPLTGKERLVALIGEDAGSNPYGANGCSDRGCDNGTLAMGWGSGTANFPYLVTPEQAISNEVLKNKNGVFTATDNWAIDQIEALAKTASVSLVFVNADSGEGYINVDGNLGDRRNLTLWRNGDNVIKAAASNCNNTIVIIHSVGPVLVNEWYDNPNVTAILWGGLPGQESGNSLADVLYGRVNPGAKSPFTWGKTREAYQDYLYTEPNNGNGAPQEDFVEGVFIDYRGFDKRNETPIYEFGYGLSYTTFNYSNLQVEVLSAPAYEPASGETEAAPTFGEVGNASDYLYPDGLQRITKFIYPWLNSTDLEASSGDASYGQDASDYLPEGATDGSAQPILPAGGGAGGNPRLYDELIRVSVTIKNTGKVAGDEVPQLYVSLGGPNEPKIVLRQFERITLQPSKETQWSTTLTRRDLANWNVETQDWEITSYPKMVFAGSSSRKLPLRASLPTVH

On to `OC[C@H]1O[C@@H](O[C@H]2[C@H](O)[C@@H](O)C(O)O[C@@H]2CO)[C@H](O)[C@@H](O)[C@@H]1O` (stereo partly drawn) [Cellobiose, cellobiose (β-1,4-glucobiose)], for which the Km is 5.65 mM in series [1] (setting [12]); 250 µM in series [2] (setting [12]); 890 µM in series [3]; 1 mM in [4] (setting [12]); 830 µM in series [5] (setting [12]); 2.1 mM in series [6] (setting [12]). Also, the Km was 19 mM in series [7] (setting [12]) and 77 mM in series [8].

For the molecule `OC[C@H]1OC(O)[C@H](O)[C@@H](O)[C@@H]1O` (stereo partly shown) [Glucose], the inhibitory constant (Ki) in [1] (setting [13]) was 1 mM; in series [2] (setting [13]), 8.75 mM; in series [4] (setting [13]), 5.48 mM; in series [5] (setting [13]) it was 500 µM; in series [9] it was 3.6 mM; in [6] (setting [13]), 620 µM. Further, the inhibition constant Ki in [7] (setting [13]) is 420 µM.

For `O=C1O[C@H](CO)[C@@H](O)[C@H](O)[C@H]1O` [glucono-1,5-lactone, reference compound], in [9] (competitive inhibition, pNPG and cellobiose as substrates, read-out: Ki of glucono-1,5-lactone), the inhibition constant (Ki) was 0.05 mM.

As to `O=[N+]([O-])c1ccc(O[C@@H]2O[C@H](CO)[C@@H](O)[C@H](O)[C@H]2O)cc1` [pNPG, .rho.-nitrophenyl-β-D-glucoside, reference compound], the Michaelis constant (Km) in series [2] (read-out: Km (pNPG as substrate)) was 350 µM.

B1: Orpinomyces sp. strain PC-2 β-glucosidase BglA, recombinant, secreted from S. cerevisiae, SEQ ID NO:2 (Orpinomyces sp. PC-2) (protein)
chain: T1 sequence (Q9UUQ3 17-657)
B1: the figures for the Km in [10] and in [11] were 0.310 mM and 0.762 mM, respectively.
